Results published in patent publication EP3050886A1, “Fluorescent dyes and dye precursors” (Bürkert Werke GmbH, priority 2015, dated 2016).
Entries after “also recorded” stand apart in the source; their conditions may differ.

Key:
[1] = system: E. coli (ATCC 8739); assay: Labeling of viable E. coli, fluorescence intensity by spectrofluorometer; format: cell-based, Escherichia coli; settings: for E. coli staining at 40 µM compared with 5-CFDA or 5-PFDA / concentration range resulting in a saturation process / concentration up to which an increase of viable E. coli fluorescence intensity is obtained: data not shown; for viable E. coli fluorescence intensity relative to 5-CFDA staining: 10 - 15 µM, 30 min at 37 °C, excitation 488 nm, emission 517 nm, Figure 5
Procedure: For the staining tests, E. coli (ATCC 8739 or EC18), E. cloacae, C. indologenes, P. aeruginosa and B. subtilis were cultivated in Luria-Bertani (LB) broth until exponential phase at 37°C with shaking at 300 rpm revolutions per minutes (rpm). Bacteria were harvested and washed in sterile phosphate buffer saline solution (PBS) at pH […] by centrifugation at 10000 rpm for 3 min at room temperature (21 ± 2 °C). Then the bacteria were resuspended in PBS at a concentration of 1·10^9 bacteria/ml. Bacteria concentration was calculated according to the turbidity measure at 660 nm (A660nm=1 correspond to bacterial suspension at ∼ 5·10^8 bacteria/ ml).
Dead bacterial suspensions at 1·10^9 bacteria/ml (negative controls) of these five species of bacteria were prepared individually by addition of 20 µl of bleach containing 2.6 % active chlorine. Bacteria were treated with bleach solution for 15 min. Dead bacteria were washed twice in sterile PBS by centrifugation at 10000 rpm for 3 min at room temperature. The culturability of the negative controls was assessed by plating 100 µl of bacterial suspension onto LB agar or Caso agar and incubating the plates at 37 °C for 72 h.
[…] Bacteria were incubated at 37 °C for 10 - 60 min with pro-fluorophore in darkness. After bacterial staining, they were washed and resuspended in 100 µl of PBS as described above.
Staining of the bacterial suspension was observed under a fluorescent microscope. These bacteria were imaged with a Leica DM5500 microscope equipped with FITC filter. […] Images were collected with a 100x objective. Fluorescence intensity of stained bacterial suspension was also measured with FluoroLog®-3 (Horiba Jobin Yvon) spectrofluorometer equipped with sample stirring. Samples were placed in fluorescence grade quartz cuvette having a volume of 1 ml. The excitation wavelength used was 488 nm and emission wavelength used was 517 nm. The same experiment was repeated three times (n = 3).
Viable or dead E. coli (ATCC 8739) were incubated with different pro-fluorophores (10 - 15 µM) for 30 min at 37 °C. After washes, fluorescence of the E. coli suspension was measured with a FluoroLog®-3 spectrofluorometer (excitation wavelength: 488 nm, emission wavelength: 517 nm). Relative rates of viable E. coli fluorescence intensity were calculated by normalizing the difference of viable E. coli fluorescence intensity and dead E. coli fluorescence intensity with 5-CFDA staining.
Viable E. coli (ATCC 8739) were incubated with different pro-fluorophores (15 µM) at 37 °C for 10 - 60 min. After washes, E. coli fluorescence suspension was measured with FluoroLog®-3 spectrofluorometer (excitation wavelength: 488 nm, emission wavelength: 517 nm).

[2] = system: E. coli (EC18); assay: Immunofluorescence and viability staining of E. coli; format: cell-based, Escherichia coli; settings: 15 µM, 30 min at 37 °C, PBS containing 0.6 % glutaraldehyde
Procedure: Environmental E. Coli (EC18) were cultivated and re-suspended in PBS as described above. A dead bacterial suspension was also prepared as previously described. Dead or viable E. coli (EC18) (100 µl of suspension at 1.10^9 bacteria/ml) were incubated with rabbit anti-EC18 polyclonal antibodies (anti-EC18 pAb) (dilution 1/20) for 1 h at room temperature. This anti-EC 18 pAb was obtained from immunized rabbit with inactivated EC18 (Eurogentec). Bacteria were washed in PBS by centrifugation at 10000 rpm for 3 min at room temperature. Then, they were resuspended in 200 µl of PBS solution containing 0.6 % of glutaraldehyde with 15 µM of 5-POGDA and incubated for 30 min at 37 °C in the absence of light. Following several washes with PBS as described above, dead or viable E. coli (EC18) were re-suspended in 200 µl of PBS and incubated for 1 h at room temperature in the absence of light with AlexaFluor 568 labeled anti-rabbit immunoglobulin (dilution 1/1000) (Molecularprobes, A11036). Bacteria were washed twice and re-suspended in 100 µl of PBS. They were imaged with a Leica DM5500 microscope equipped with FITC and Cy3 filters. Images were collected with a 100x objective. The same experiment was repeated three times (n = 3).

Row | SMILES | E. coli staining at 40 µM compared with 5-CFDA or 5-PFDA [1] | viable E. coli fluorescence intensity relative to 5-CFDA staining [1] | concentration range resulting in a saturation process [1] | concentration up to which an increase of viable E. coli fluorescence intensity is obtained [1] | green fluorescence of viable and dead E. coli (EC18) coated with antibodies [2]
1 | CCCNC(=O)c1ccc2c(c1)C(=O)OC21c2cc(F)c(OCOC(C)=O)cc2Oc2cc(OCOC(C)=O)c(F)cc21 [Example 5-POGAM, 2',7'-difluoro-3-oxo-5-(propylcarbamoyl)-3H-spiroisobenzofuran-1,9'-xanthene-3',6'-diyl diacetoxymethyl ether] | stronger E. coli staining than 5-CFDA or 5-PFDA | between two and three times higher; also recorded: three times brighter | 20 to 40 µM | about 15 µM | 
2 | CCCNC(=O)c1ccc2c(c1)C(=O)OC21c2cc(F)c(OC(C)=O)cc2Oc2cc(OC(C)=O)c(F)cc21 [Example 5-POGDA, 2',7'-difluoro-3-oxo-5-(propylcarbamoyl)-3H-spiro[isobenzofuran-1,9'-xanthene]-3',6'-diyl diacetate] | stronger E. coli staining than 5-CFDA or 5-PFDA | approximately 6 | 20 to 40 µM | about 15 µM | bright green fluorescence; also recorded: viable cells have a green fluorescence and dead cells have no green fluorescence
